The data set is described as follows: lipid maldigestion or malabsorption animal model (Orlistat): EPA incorporation in red blood cell lipids. Type of data set: in vivo, rats. As to the method: The inventors tested their concept in a lipid maldigestion/malabsorption animal model. The malabsorption condition was obtained using Orlistat®, a well known pancreatic and gastric lipases inhibitor. Animals were fed with long-chain polyunsaturated fatty acid (LC-PUFA) supplements containing mainly eicosapentaenoic (EPA) acid. Fish oil was used as a source of triacylglycerols and different EPA glycerides, for example those of FIG. 1, were evaluated. At different time intervals the fatty acid profile of red blood cell and plasma lipids was assessed. At the end of the experiment, fatty acid profiles of different tissues were determined. […] However, if LC-PUFA are provided as sn-1(3) MAGs the incorporation in tissue is not altered in conditions of lipid malabsorption/maldigestion.
Treatments: Control rats fed fish oil with or without Orlistat and rats fed with MAGs described in FIG. 1. Values are means±SEM (n=6).
The concept was tested in a lipid maldigestion or malabsorption animal model. The maldigestion or malabsorption condition was obtained using Orlistat, a well known pancreatic and gastric lipases inhibitor. Animals were fed during 21 days with long-chain polyunsaturated fatty acid (LC-PUFAs) supplements containing mainly eicosapentaenoic (EPA) acid. Fish oil was used as a source of triacylglycerols and the different EPA glycerides provided in FIG. 1 and purchased from Cognis GmbH, Germany, were evaluated. Orlistat was given at a level sufficient to decrease lipid absorption by 40%. A group receiving fish oil without Orlistat was used as a positive control. At different time intervals (D-3, D7, D14 and D21), fatty acid profile of red blood cell and plasma lipids were performed. At the end of the experiment, fatty acid profiles of different tissues were determined.
The main objective was to follow the level of EPA in red blood cell and plasma lipids. The main comparison evaluated was the difference in EPA level between groups receiving EPA containing MAGs (FIG. 1) in combination with Orlistat and the positive control group […].

Regarding `CCCCCCCCCCC[C@@H](C[C@@H]1OC(=O)[C@H]1CCCCCC)OC(=O)[C@H](CC(C)C)NC=O` [Orlistat, reference compound], the “effect on EPA incorporation in red blood cells” value (group receiving fish oil in combination or not with Orlistat, validates the model) is recorded as “decrease EPA incorporation in red blood cells”.

In the case of `CC/C=C\C/C=C\C/C=C\C/C=C\C/C=C\CCCC(=O)OCC(O)CO` (stereo not shown) [sn-1(3) monoeicosapentaenoylglycerol, sn-1(3)-monoeicosapentaenoylglycerol], the “level of EPA incorporated in red blood cells, compared with the fish oil group (without Orlistat)” value (rats fed MAGs in combination with Orlistat, day 7, FIG. 2) was “even higher than the fish oil group”. In addition, the “level of EPA incorporated in red blood cells, compared with the fish oil+Orlistat group” value (rats fed MAGs in combination with Orlistat, day 7, all P values lower than 0.05, FIG. 2) is “statistically higher”. Further, the “fatty acid absorption compared with fish oil under normal conditions” value (under maldigestion/malabsorption conditions, FIG. 2) is given as “better absorbed”.

The record behind these values is patent publication US9000039B2, “Sn-1(3) monoacylglycerides and lipid absorption” (Nestec S.A., priority 2011, dated 2015).
